Patent US4913908A, “Preparation of submicroscopic particles, particles thus obtained and pharmaceutical compositions containing them” (N. V. Sopar S.A., priority 1981, dated 1990)

Key:
[1] = Toxicity: survival/mortality of mice after intravenous administration or injections; format: in vivo; details: mouse, in vivo; intravenous, three successive doses of 10 mg/kg/day; read-out: mice that do not survive for 15 days
Method: (§1) Several toxicity measurements are carried out with suspensions of particles obtained by this process.

mice = assay: as above; format: in vivo; details: three injections of 12.5 mg/kg/day; result in words
Method: as §1

**Q.** With `COc1cccc2c1C(=O)c1c(O)c3c(c(O)c1C2=O)C[C@@](O)(C(=O)CO)C[C@@H]3O[C@H]1C[C@H](N)[C@H](O)[C@H](C)O1` [doxorubicin] as the molecule, how does the mortality at 360 h [1] read?
**A.** Its mortality at 360 h is 27.5%.

**Q.** What about the mice that survive (mice) of the same molecule?
**A.** The mice that survive was “none of the mice survives”.
